Experimental data reported in patent EP0565593B1, “REDUCING PESTICIDAL INTERACTIONS IN CROPS” (priority 1990, dated 1992).

Experiments:
Velvetleaf (VELE) = experiment: Greenhouse test Procedure VI (Examples 59-61; Tables 58-60); assay type: in vivo, Abutilon theophrasti; details: Antidote + Biocide No. 1 in furrow
Source text: (§1) This procedure describes interaction among herbicide, biocide and antidote when the herbicide is incorporated in a soil cover layer and the biocide and the antidote are applied in a soil furrow containing crop seed before emergence of the crop. The soil and seeding depth were described in Procedure IV. A first container was designated as an untreated control, a second container was designated as a herbicide control, a third container was designated as a herbicide + biocide control and a fourth container as a herbicide + biocide + antidote test container. The biocide and antidote were formulated as granules. The biocide was applied to the soil furrows of the third and fourth containers at an application rate of 1.1 mg of active compound per cm of row. The antidote was applied to the soil furrow of the fourth container at an application rate of 0.37 mg of active compound per cm of row. A measured amount of the herbicide dispersed or dissolved in acetone was applied to a measured quantity of soil. The quantity of soil treated with the herbicide was thoroughly mixed to incorporate the herbicide. Samples of this soil were used to cover the seed beds of the second, third and fourth containers. For each test series, the seed bed of the first container was likewise covered by a soil layer not treated with herbicide and without biocide or antidote in the soil furrow.
(§2) The containers were then placed on a bench in a greenhouse. Watering was by subirrigation plus overhead irrigation after the plants emerged. All treatments were run in duplicate. Plant response was observed according to Procedure IV. Variations in this procedure will be noted in the examples.
(§3) The procedure used in this example involved the PPI application of biocide and safener as described in general Procedure VI above. The "primary" herbicide in this test was MON-12000 (Herbi-cide No. 1) in admixture with other herbicides designated as "co-herbicides", which included LASSO® (co-herbicide B); DUAL® (C); acetochlor (A); EPTAM® (D); butylate (E) and PURSUIT® (K).
(§4) The in-furrow treatments with blended COUNTER 15G and antidote mixtures was as described in above examples. MON-12000 and the co-herbicides were formulated in acetone and applied as tank mixtures, incorporated into Dupo silt loam soil with a rotary drum mixer. Subsamples were used to cover seeded and in-furrow treated 10.2 cm pots. Pots were placed on greenhouse benches and subirrigated. Plant responses were observed thirteen days after PPI initiation. Test results (average of two replications) are shown in Table 58, wherein giant foxtail (GIFT) was used in place of shattercane.
(§5) This test was conducted in the same manner used in Example 59. All biocide and antidote components were the same and in these tests XRD-498 (Herbicide No. 21) was the prime herbicide. Co-herbicides are shown in Table 59 together with test data.
(§6) In one other test conducted as described in the preceding examples in this series of tests, the herbicide PURSUIT® was used as the primary herbicide (in the context of this invention) together with the same insecticide and safeners as above and the co-herbicides shown in Table 60, together with test results.

Giant foxtail (GIFT) = experiment: as above; assay type: in vivo; details: Antidote + Biocide No. 1 in furrow
Source text: as §1, §2, §3, §4, §5, §6

[1] = Herbicide No. 11 0.0044 Kg/Ha PPI
[2] = Herbicide No. 12 0.0044 Kg/Ha PPI
[3] = Herbicide No. 13 0.0011 Kg/Ha PPI
[4] = Herbicide No. 13 0.0022 Kg/Ha PPI
[5] = Herbicide No. 14 0.07 Kg/Ha PPI
[6] = Herbicide No. 16 0.07 Kg/Ha PPI, 13 days
[7] = Herbicide No. 17 0.14 Kg/Ha PPI, 13 days
[8] = Herbicide No. 18 0.04 Kg/Ha PPI, 13 days
[9] = Herbicide No. 20 1.12 Kg/Ha PPI, 13 days
[10] = Herbicide No. 22 0.28 Kg/Ha PPI, 13 days
[11] = Herbicide No. 24 0.14 Kg/Ha PPI, 13 days
[12] = Herbicide No. 25 0.14 Kg/Ha PPI, 13 days
[13] = Herbicide No. 26 2.24 Kg/Ha PPI, 13 days
[14] = Herbicide No. 28 0.04 Kg/Ha PPI, 13 days

## N#CCOc1ccc(Cl)c2cccnc12 [compound 33]
Velvetleaf (VELE); Herbicide No. 6 0.14 Kg/Ha PPI
  % Inhibition VELE: 70%
Velvetleaf (VELE); [1]
  % Inhibition VELE: 65%
Velvetleaf (VELE); [2]
  % Inhibition VELE: 60%
Velvetleaf (VELE); [3]
  % Inhibition VELE: 20%
Velvetleaf (VELE); [4]
  % Inhibition VELE: 50%
Velvetleaf (VELE); [5]
  % Inhibition VELE: 85%
Velvetleaf (VELE); [6]
  % Inhibition VELE: 65%
Velvetleaf (VELE); [7]
  % Inhibition VELE: 75%
Velvetleaf (VELE); [8]
  % Inhibition VELE: 40%
Velvetleaf (VELE); [9]
  % Inhibition VELE: 90%
Velvetleaf (VELE); [10]
  % Inhibition VELE: 90%
Velvetleaf (VELE); [11]
  % Inhibition VELE: 95%
Velvetleaf (VELE); [12]
  % Inhibition VELE: 70%
Velvetleaf (VELE); [13]
  % Inhibition VELE: 50%
Velvetleaf (VELE); [14]
  % Inhibition VELE: 80%
Giant foxtail (GIFT); Herbicide No. 6 0.14 Kg/Ha PPI
  % Inhibition GIFT: 70%
Giant foxtail (GIFT); [1]
  % Inhibition GIFT: 0%
Giant foxtail (GIFT); [2]
  % Inhibition GIFT: 0%
Giant foxtail (GIFT); [3]
  % Inhibition GIFT: 10%
Giant foxtail (GIFT); [4]
  % Inhibition GIFT: 35%
Giant foxtail (GIFT); [5]
  % Inhibition GIFT: 0%
Giant foxtail (GIFT); [6]
  % Inhibition GIFT: 45%
Giant foxtail (GIFT); [7]
  % Inhibition GIFT: 80%
Giant foxtail (GIFT); [8]
  % Inhibition GIFT: 45%
Giant foxtail (GIFT); [9]
  % Inhibition GIFT: 30%
Giant foxtail (GIFT); [10]
  % Inhibition GIFT: 15%
Giant foxtail (GIFT); [11]
  % Inhibition GIFT: 25%
Giant foxtail (GIFT); [12]
  % Inhibition GIFT: 25%
Giant foxtail (GIFT); [13]
  % Inhibition GIFT: 15%
Giant foxtail (GIFT); [14]
  % Inhibition GIFT: 40%
